Measured values: ChEMBL document CHEMBL1136589, “Antineoplastic agents 390. Isolation and structure of phakellistatin 12 from a Chuuk archipelago marine sponge” (2003)
Values after ≈ are worked out from the molar mass of the structure shown. Where a SMILES comes first, the peptide text is derived from it.

Test system: P388
Assay: Inhibitory activity against P388 lymphocytic leukemia cells
Assay type: functional
Conditions: Mus musculus, read-out: ED50 (the source's name)

EC50: 2.8 µg/mL (≈ 2.46 µM)
SMILES: CC[C@H](C)[C@@H]1NC(=O)[C@@H]2CCCN2C(=O)[C@@H]2CCCN2C(=O)[C@H]([C@@H](C)CC)NC(=O)[C@H](Cc2ccc(O)cc2)NC(=O)[C@@H]2CCCN2C(=O)[C@@H]2CCCN2C(=O)[C@H](CC(C)C)NC(=O)[C@H]([C@@H](C)O)NC(=O)[C@H](Cc2ccccc2)NC1=O [PHAKELLISTATIN 12] (cyclo(FTLPPYIPPI))
